These results are taken from patent US7968600B2, “Medicament for preventive and therapeutic treatment of physical dysfunction caused by nerve damage” (Nanoegg Research Laboratories, Inc., priority 2007, dated 2011).

Each structure is given as a SMILES string.

The test system of experiment [1] is traumatic spinal cord injury model rats. In words: Basso-Beattie-Bresnahan (BBB) score, motor function of the hind limb in traumatic spinal cord injury model rats. The experiment is classed as in vivo, Wistar rats. As to conditions: for BBB score: 21st day from the injury; for BBB scores compared to the control group (FIG. 1): time course after the injury. The protocol:
(§1) 23 of 9 weeks old female Wistar rats had on their spinal cords of the thoracic vertebrae injured under anesthesia by loading a weight of 10 g dropped from a height of 2.5 cm to prepare traumatic spinal cord injury model rats with impaired motor function of the hind limb. The 23 rats were divided into the following 3 groups: • 1st Group: 8 rats were administered orally with 3 mg/kg of 4-[(5,6,7,8-tetrahydro-5,5,8,8-tetramethyl-2-naphthalenyl)carbamoyl]benzoic acid once before the injury and then once a day. • 2nd Group: 8 rats were administered with 0.15 mg/kg of 4-[(5,6,7,8-tetrahydro-5,5,8,8-tetramethyl-2-naphthalenyl)carbamoyl]benzoic acid directly to the injured site immediately after the injury, and then administered subcutaneously once a day near the injured area. • 3rd Group: 7 rats were administered orally with 1 ml/kg of 0.5% carboxymethyl cellulose (CMC) solution as a control group.
(§2) Administration was performed every day for 21 days after the injury for each group. The motor function of the hind limb was evaluated according to the Basso-Beattie-Bresnahan (BBB) score every day up to 21st day, and 28th day after the injury. For animals with BBB scores being 10 or more, evaluation of the motor function was performed by using a treadmill (manufactured by Muromachi Kikai Co., Ltd) on the 21st and the 28th day. The treadmill tests were performed for 5 minutes with velocity of the treadmill walking surface being kept at 8 m/min. In the test, a period of time during which the animal walked with four legs was measured, and in addition, total number of the contact of the animal with the end wall of the walking surface due to the stop walking of the animal was measured, thereby motor function was evaluated.

Experiment [2] has the same test system. In words: Treadmill test (compulsory walking) in traumatic spinal cord injury model rats. The experiment is classed as in vivo, Wistar rats. Particulars: for Number of contact to back end wall: 21st day from the injury, treadmill 8 m/min for 5 min, **p < 0.01; for number of the contact with the back end wall as compared to the control group / walking period as compared to the control group: treadmill test. The protocol: as §1, §2

The next experiment deals with regenerated nerves. Particulars: 50 μL (10 nM RA); cited from earlier work.

As for `CC1(C)CCC(C)(C)c2cc(NC(=O)c3ccc(C(=O)O)cc3)ccc21` [4-[(5,6,7,8-tetrahydro-5,5,8,8-tetramethyl-2-naphthalenyl)carbamoyl]benzoic acid], the BBB score is listed as 11.43 ± 3.80 ^ in experiment [1] (oral 3.0 mg/kg once a day) and 12.71 ± 2.28(*) in experiment [1] (subcutaneous 0.15 mg/kg once a day, *p < 0.05). Moreover, the “BBB scores compared to the control group (FIG. 1)” value in experiment [1] (oral 3 mg/kg) and in experiment [1] (subcutaneous 0.15 mg/kg) was “significantly improved BBB scores” each time. The “Number of contact to back end wall” value in experiment [2] (oral 3.0 mg/kg once a day) is listed as 16.0 ± 8.3(**); in experiment [2] (subcutaneous 0.15 mg/kg once a day), 13.4 ± 6.7(**). The “number of the contact with the back end wall as compared to the control group” value in experiment [2] (oral administration) and in experiment [2] (subcutaneous administration) was “remarkable decrease” each time. Also, the “walking period as compared to the control group” value in experiment [2] (oral administration) and in experiment [2] (subcutaneous administration) was “prolongation of the walking period” each time.

On to `CC1=C(/C=C/C(C)=C/C=C/C(C)=C/C(=O)O)C(C)(C)CCC1` [Vitamin A acid, all-trans retinoic acid], for which, in the experiment on regenerated nerves, the “increase of regenerated nerves” value is recorded as 30%; the “recovery in nerve and motor functions” value is given as “no recovery”.
